The values below come from patent US20210077478A1, “METHOD OF COUNTERING RESPIRATORY DEPRESSION VIA ACTIVATION OF NEURONAL HETEROMERIC NICOTINIC ACETYLCHOLINE RECEPTORS” (THE GOVERNORS OF THE UNIVERSITY OF ALBERTA, priority 2017, published 2021).

Series [1] has as its system newborn rats. Kind of series: Propofol-induced respiratory depression in newborn rats (P3). The series is classed as in vivo, rat. The procedure: In a further experiment, A85380 (0.03 mg/kg, ip) and propofol (30 mg/kg, ip) were co-administered in newborn rats in vivo (P3). In the control group, vehicle (saline) was administered with 30 mg/kg propofol (FIG. 6A). […] Without being bound by any theory, targeting of α4β2 nAChRs may be a potent means of alleviating the effects of drugs (e.g. propofol) causing respiratory depression via GABAA receptor mechanisms in vivo.

Series [2] has as its system brainstem-spinal cord in vitro preparations. In words: Brainstem-spinal cord in vitro preparation, respiratory rhythm (C4 / XII nerve recordings). Also on record: species or system rat. The conditions noted are these: for fR in the presence of the antagonist: antagonist 400 nM. The procedure:
Brainstem-spinal cord and medullary slice preparations were obtained from neonatal Sprague-Dawley rats. The rats were anesthetized with metofane, decerebrated, and the brainstem-spinal cord (BSSC) and medullary slice dissected (Smith et al., 1990; 1991). BSSC was continuously perfused with modified Krebs solution. A single rhythmic medullary slice was cut (500-650 μm thick) and continuously perfused with bathing solution. Inspiratory activity was recorded from the fourth ventral cervical nerve roots of BSSC or XII nerve rootlets of the medullary slice using an extracellular glass electrode.
Neonatal (postnatal day 1-3) rats were anesthetized with metofane, decerebrated and the brainstem-spinal cord dissected as previously reported. The neuraxis was continuously perfused at 27°±1° C. (5 ml/min; chamber volume, 3 ml) with modified Kreb's solution that contained 128 mM NaCl, 3.0 mM KCl, 1.5 mM CaCl2, 1.0 mM MgCl2, 23.5 mM NaHCO3, 0.5 mM NaH2PO4, and 30 mM d-glucose equilibrated with 95% O2-5% CO2 (pH 7.4).
A single transverse slice containing the preBötC and more caudal reticular formation regions was then cut (700 μm thick) from brainstem-spinal cord preparations perfused with a bathing solution identical to that used for B SSC preparation with the exception that the KCl concentration was increased to 9 mM to facilitate long-term generation of stable rhythm. Recordings from the fourth ventral cervical nerve roots of brainstem-spinal cord or hypoglossal nerve roots of medullary slice preparations were amplified, rectified, low-pass filtered, and recorded to a computer, using an analog-digital converter (Axon Instruments Digidata; Molecular Devices, Sunnyvale, Calif.) and data acquisition software (Axon Instruments AxoScope).

The subject of a further series is rat pups. To be noted: in vivo.
Series [3] has as its system medullary slice (preBötC and XII motoneurons). Also on record: species or system rat.
In series [4] the test system is adult rats. In words: Baseline ventilation after drug alone, plethysmography in adult rats. Format: in vivo, rat. To be noted: for baseline minute ventilation: drug alone: A85380 0.03, Rivanicline 3, NS9283 10, PNU282987 1-15 mg/kg.
The test system of series [5] is P0 rat brainstem-spinal cord preparation with C2 hemisection. Kind of series: C2 hemisection spinal cord injury model, brainstem-spinal cord preparation, C4 recordings. To be noted: A85380 25 nM bath. The source says: One of the primary causes of morbidity and mortality associated with spinal cord injury is loss of normal functioning of the respiratory musculature. This is caused by a reduced synaptic drive from respiratory rhythm generating centers onto respiratory spinal motoneurons. An in vitro newborn brainstem spinal cord rat model of spinal cord injury (Zimmer and Goshgarian, 2005) was used to test the efficacy of targeting α4β2 nAChRs to alleviate weak respiratory drive. […] Rectified and integrated signals were made from both C4 recordings from a P0 rat brainstem-spinal cord preparation showing the respiratory activity both contralateral (A: top traces) and ipsilateral (B: bottom traces) to one side C2 hemisection. There was a marked reduction in neural activity after the hemisection in ipsilateral nerve, but respiratory-like activity was still observed occasionally and was correlated with the respiratory activity on the contralateral nerve.

Series [6] deals with adult rats. To be noted: rat, in vivo, sc, 0.06 mg/kg.
Series [7] concerns adult rats. Kind of series: Formalin test (licking and lifting) in adult rats. The series is classed as in vivo, rat.
The conditions of series [8]: oral administration, compared with sazetidine-A (Kong et al. 2015); cited from earlier work.
For the next series, the target named is (α4)3(β2)2 receptors (Homo sapiens, UniProt P17787+P43681). To be noted: Zwart et al., 2008; Carbone et al., 2009; cited from earlier work.
Chain of (α4)3(β2)2 receptors (P43681 29-627 limits assumed): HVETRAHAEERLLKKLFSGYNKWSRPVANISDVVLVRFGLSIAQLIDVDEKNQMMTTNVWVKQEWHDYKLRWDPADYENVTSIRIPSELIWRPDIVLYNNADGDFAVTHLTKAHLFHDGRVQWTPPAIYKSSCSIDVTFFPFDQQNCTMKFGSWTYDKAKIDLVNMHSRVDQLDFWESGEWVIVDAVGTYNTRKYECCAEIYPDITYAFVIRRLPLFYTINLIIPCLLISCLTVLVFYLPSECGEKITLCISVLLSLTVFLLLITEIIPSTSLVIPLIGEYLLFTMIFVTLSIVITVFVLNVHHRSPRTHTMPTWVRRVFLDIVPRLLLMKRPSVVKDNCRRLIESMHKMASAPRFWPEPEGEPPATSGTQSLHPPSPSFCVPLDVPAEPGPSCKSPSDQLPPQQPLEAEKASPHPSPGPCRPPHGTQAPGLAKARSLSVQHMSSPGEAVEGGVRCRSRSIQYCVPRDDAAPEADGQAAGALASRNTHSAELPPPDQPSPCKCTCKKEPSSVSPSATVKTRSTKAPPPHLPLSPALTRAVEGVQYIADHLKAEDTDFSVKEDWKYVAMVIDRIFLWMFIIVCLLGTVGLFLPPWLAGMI
Chain of (α4)3(β2)2 receptors (P17787 26-502): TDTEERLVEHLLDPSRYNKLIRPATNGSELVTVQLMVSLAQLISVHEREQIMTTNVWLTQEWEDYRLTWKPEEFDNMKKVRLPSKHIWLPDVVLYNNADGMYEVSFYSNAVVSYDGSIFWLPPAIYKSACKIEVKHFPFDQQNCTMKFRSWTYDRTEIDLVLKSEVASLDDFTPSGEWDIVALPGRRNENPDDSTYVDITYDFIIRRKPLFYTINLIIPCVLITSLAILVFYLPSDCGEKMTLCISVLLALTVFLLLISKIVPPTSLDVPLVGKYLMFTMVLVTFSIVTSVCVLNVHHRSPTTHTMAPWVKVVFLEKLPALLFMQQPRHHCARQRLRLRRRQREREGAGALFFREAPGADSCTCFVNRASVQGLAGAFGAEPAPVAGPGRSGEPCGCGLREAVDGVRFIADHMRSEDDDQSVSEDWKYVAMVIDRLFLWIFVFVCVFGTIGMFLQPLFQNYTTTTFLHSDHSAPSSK
For a further series, the target named is (α4)2(β2)3 receptors (Homo sapiens, UniProt P17787+P43681). To be noted: Zwart et al., 2008; Carbone et al., 2009; cited from earlier work.
Chain of (α4)2(β2)3 receptors (P43681 29-627 limits assumed): as the sequence (P43681 29-627 limits assumed) above
Chain of (α4)2(β2)3 receptors (P17787 26-502): as the sequence (P17787 26-502) above
For series [9], the system named is newborn rats. Kind of series: Fentanyl-induced respiratory depression in rat pups (postnatal day 3-4), plethysmography. Format: in vivo.
The test system of series [10] is adult rats. The conditions noted are these: rat, in vivo, iv.

Entries after “also recorded” stand apart in the source; their conditions may differ. Like-named read-outs stand apart in the source and are kept apart here.

On to `CC(C)c1cccc(C(C)C)c1O` [propofol], for which, in the series on newborn rats [1] (propofol 30 mg/kg ip), the “duration of propofol respiratory depression” value is on record as “over 30 minutes” and the “onset of propofol respiratory depression” value is not above 5 min. Further, the “respiratory depression by propofol” value with newborn rats [1] (propofol 30 mg/kg ip with saline) was “marked depression of respiratory frequency and amplitude”.

As to `CN1CCCC1c1cccnc1` (centres unmarked) [nicotine], in series [2], the “baseline fR” value is “caused an increase of baseline fR”; the “concentrations at which baseline fR is increased” value was “above 200 nM”; the “reversal of DAMGO-induced respiratory depression (decrease in fR and burst area)” value is reported as “clear reversal”. Moreover, in the series with rat pups, the “significant alteration of baseline VE” value is listed as “Neither”.

Regarding `C[C@@H](NC(=O)[C@@H](N)Cc1ccc(O)cc1)C(=O)NCC(=O)N(C)[C@@H](Cc1ccccc1)C(=O)NCCO` [DAMGO, [D-Ala2, NMe-Phe4, Gly-ol5]-enkephalin], in [3], the “effect of DAMGO on fR” value is listed as “caused a suppression of fR”; the “effect of DAMGO on respiratory frequency and amplitude” value is “induced suppression of respiratory frequency and amplitude”. Besides, in [2], the “respiratory depression by DAMGO (fR and burst area)” value is “suppressed fR and burst area”.

Regarding `O=C(N[C@H]1CN2CCC1CC2)c1ccc(Cl)cc1` [PNU282987], the values for the baseline respiratory frequency entry in series [3] and in series [2] were “had no effect” and “very modest increase in respiratory frequency”, respectively. Also, the “baseline fR” value in [2] is given as “very modest increase in fR”. Also, the baseline minute ventilation in the series on adult rats [4] is 102.9±4.1 % of control. In addition, in the series with rat pups, the “significant alteration of baseline VE” value is recorded as “Neither”.

Turning to `c1cncc(OC[C@@H]2CCN2)c1` [A85380, 3-(2(s)-azetidinylmethoxy) pyridine], in series [3], the “DAMGO-induced suppression of fR” value is “alleviated”; the “DAMGO-induced suppression of respiratory frequency and amplitude” value is on record as “alleviated”; the “baseline respiratory burst area” value is “decreased baseline respiratory burst area”; the baseline respiratory frequency entry is reported as “increased respiratory frequency; also recorded: increased fR”. For the same molecule, in [3], the “loss of respiratory drive and motor output in low potassium” value was “potently reversed the loss of respiratory drive and motor output”; the respiratory amplitude result is on record as “decreased the respiratory amplitude”. In [5], the “ipsilateral respiratory amplitude after C2 hemisection” value is “partially increased” and the “respiratory frequency after C2 hemisection” value is “increased the respiratory frequency”. In series [2], the “baseline fR” value was “increased baseline fR”, the baseline respiratory amplitude result was “without marked effects”, the baseline respiratory frequency result is on record as “increased baseline respiratory frequency” and the “concentrations at which baseline fR is increased” value is given as “above 5 nM”. Besides, in series [2], the “ethanol and pentobarbital-induced respiratory depression” value is “alleviated”; the “reversal of DAMGO-induced respiratory depression (decrease in fR and burst area)” value is “clear reversal”; the “reversal of DAMGO-induced respiratory depression (frequency and amplitude)” value (from here on “reversal … (frequency and amplitude)”) is listed as “clear reversal”; the “weak respiratory rhythm and XII motor output” value was “increased respiratory frequency, amplitude and bursting duration”. Besides, the baseline minute ventilation with adult rats [4] is recorded as 97.8±3.1 % of control. In the series on adult rats [6], the “paw withdrawal latency to thermal stimuli, baseline” value is on record as “marked increase in paw withdrawal latency”. The “nocifensive response 20-40 minutes post formalin, baseline” value in the series on adult rats [7] (rat, in vivo, sc, 0.06 mg/kg) is listed as “decreased nocifensive response”. In addition, in the series with rat pups, the “significant alteration of baseline VE” value was “Neither”. Besides, the propofol-induced respiratory depression entry in the series on newborn rats [1] (A85380 0.03 mg/kg ip co-administered with propofol 30 mg/kg ip) is listed as “dramatically prevented”.

`CNCC/C=C/c1cccnc1` [Rivanicline, (E)-N-Methyl-4-(3-pyridinyl)-3-butene-1-amine]: in series [2], the baseline respiratory amplitude result is reported as “without marked effects”; the baseline respiratory frequency result is “increased baseline respiratory frequency”; the “reversal … (frequency and amplitude)” value is listed as “clear reversal”. Besides, the baseline minute ventilation in the series on adult rats [4] is given as 98.4±3.6 % of control.

As for dihydro-beta-erythroidine [DHβE], the “reversal of A85380 (25 nM) effects by antagonist” value in series [3] (DHβE 200 nM subsequent bath application) is on record as “reversed”. The “fR in the presence of the antagonist” value in series [2] was “fR was slower”. Also, in the series on rat pups, the “significant alteration of baseline VE” value is given as “Neither”.

As to `CCN1C[C@]2(COC(=O)c3ccccc3N3C(=O)C[C@H](C)C3=O)CC[C@H](OC)[C@@]34[C@@H]5C[C@H]6[C@H](OC)[C@@H]5[C@](O)(C[C@@H]6OC)[C@](O)([C@@H](OC)[C@H]23)[C@@H]14` [MLA], the “fR in the presence of the antagonist” value in series [2] is “fR was slower”.

Turning to `C(#Cc1cncc(OC[C@@H]2CCN2)c1)c1ccccc1` [VMY-2-95, 3-[(2S)-2-Azetidinylmethoxy]-5-(2-phenylethynyl)-pyridine], in [8], the “penetration of the blood-brain barrier” value is given as “better penetration of the blood-brain barrier”. The “significant alteration of baseline VE” value in the series with rat pups is “Neither”.

Regarding `N#Cc1cccc(-c2nc(-c3cccnc3)no2)c1` [NS9283, 3-[3-(3-Pyridinyl)-1,2,4-oxadiazol-5yl]benzonitrile], the baseline respiratory amplitude entry in [2] (C4 discharge, A85380 25 nM, Rivanicline 0.5 μM, NS9283 15 μM) is listed as “without marked effects”. Further, the baseline respiratory frequency result in series [2] (C4 discharge, bath A85380 25 nM, Rivanicline 0.5 μM, NS9283 15 μM, PNU282987 up to 20 μM (Example 3)) was “increased baseline respiratory frequency”. Also, the “reversal … (frequency and amplitude)” value in series [2] (bath after DAMGO: A85380 25 nM, Rivanicline 0.5 μM, NS9283 15 μM, PNU282987 1-20 μM (Example 3)) is given as “clear reversal”. The baseline minute ventilation in the series on adult rats [4] is reported as 103.3±4.2 % of control.

With `OCCCCC#Cc1cncc(OC[C@@H]2CCN2)c1` [sazetidine-A, 6-[5-[(2S)-2-Azetidinylmethoxy]-3-pyridinyl]-5-hexyn-1-ol], the agonist activity result on (α4)3(β2)2 receptors is “nearly no agonist activity”; on (α4)2(β2)3 receptors it was “full agonist activity”. For the same molecule, the “significant alteration of baseline VE” value with rat pups is on record as “Neither”.

`CN1CCCC1CCc1ccc(S)cc1` (racemic) [SIB 1553A, (±)-4-[2-((N-methyl)-2-pyrrolidinyl)ethyl]thiophenol]: the “SIB 1553A effects with DHβE co-administered” value with newborn rats [9] (DHβE 6 mg/kg co-administration with fentanyl, SIB 1553A 40 mg/kg) is “only partially blocked”. In addition, in the series on newborn rats [9] (fentanyl 35 μg/kg + mecamylamine 6 mg/kg, SIB 1553A 40 mg/kg), the “fentanyl-induced respiratory depression with mecamylamine co-administered” value is reported as “had no effects”. Further, the “fentanyl-induced decrease in tidal volume (VT)” value in the series on newborn rats [9] (fentanyl 35 μg/kg, SIB 1553A 40 mg/kg sc) is given as “without marked effects”. The “fentanyl-induced decrease in respiratory rate (fR)” value with newborn rats [9] (fentanyl 35 μg/kg, SIB 1553A 40 mg/kg sc 7 min later) is “partially reversed”.

In the case of `CN1[C@@H](CC(=O)c2ccccc2)CCC[C@H]1C[C@H](O)c1ccccc1` [lobeline, 2-((2R,6S)-6-((S)-2-Hydroxy-2-phenylethyl)-1-methylpiperidin-2-yl)-1-phenylethanone], the VE is listed as 116.2±8.7 % of control with adult rats [4] (lobeline 3 mg/kg iv alone) and “did not affect VE” in the series with adult rats [4] (lobeline 6 mg/kg ip alone). Further, the “loss of righting reflex” value with adult rats [10] worked out at 22.4 ± 7.3 min. In addition, in the series with adult rats [7] (lobeline 3 mg/kg iv alone), the “nocifensive response, phase II” value is “tended to decrease the nocifensive response in the phase II, but the difference is not significant”. Moreover, in the series on adult rats [7] (lobeline 3 mg/kg iv alone, formalin 30 min post lobeline), the “nocifensive response, phase I” value is on record as “decreased nocifensive response”.
